Measured values taken from patent US12459951B2, “Compounds that interact with RAS superfamily proteins for treatment of cancers, inflammatory diseases, rasopathies, and fibrotic disease” (SHY Therapeutics, LLC, priority 2022, dated 2025).

target: T1, Rheb (Homo sapiens, UniProt Q15382); assay: Rheb GTP Binding Domain Inhibition Assay; conditions: read-out: Rheb: % inh.
T1 construct: made in house
Method: Protocol for Cdc42 and Rheb GTP Binding Domain Inhibition Assay
The following method was developed as specific assay for cdc42 and Rheb proteins.
• 25 mM Tris-HCl, pH 7.4 • 27 mM KCl • 137 mM NaCl • 1 mM MgCl2 • 1 mM DTT Buffer-II: • 50 mM Tris-HCl, pH 7.0 • 1 mM MgCl2 • 1 mM DTT
The small GTPases proteins cdc42 and Rheb were expressed as His-tagged proteins. For the assay, the cdc42 and Rheb purified small GTPases proteins were diluted in Buffer-I or Buffer-II to a final concentration of 10-30 μg/mL. 200 μL of each diluted protein was added to a nickel-coated 96-well plate and incubated overnight at […]. Then the protein solution was discarded and 200 μL of Buffer-I or Buffer-II was added to each well in the presence of 1% DMSO. Compounds to be tested were added to the protein-coated wells at final concentration of 20 μM, and incubated for 3 hours at room temperature with and without 10-30 μg/mL of Sos added to the final hour of the incubation. When performing IC50 measurements a serial dilution of all tested concentrations was added. Then Cy3-GTP or Cy5-GTP was added to each well to a final concentration of 100 nM. The labeled GTP was incubated for 45 minutes at room temperature. Following GTP incubation, wells were washed 3× in Buffer-I or Buffer-II and 200 μL of Buffer-I or Buffer-II was added to each well. Following washes, the amount of bound labeled-GTP was measured using a SpectraMax M3 (Molecular Devices).

T1 sequence (Q15382 whole entry, the tested form may be a part): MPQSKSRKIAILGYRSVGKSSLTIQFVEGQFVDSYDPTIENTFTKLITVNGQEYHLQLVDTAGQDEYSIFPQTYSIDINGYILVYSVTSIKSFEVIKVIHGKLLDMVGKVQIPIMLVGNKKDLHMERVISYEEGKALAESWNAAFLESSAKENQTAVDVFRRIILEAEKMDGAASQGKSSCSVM

Row | Compound | inhibition at 20 µM [%]
1 | COc1cccc(-c2cn3nc(-c4nccn4C)nc(N[C@@H]4CC[C@@H](OC)C4)c3c2-c2ccccc2)c1F (racemic) [Compound 43, rac 6-(2-Fluoro-3-methoxyphenyl)-N-((1R,3R)-3-methoxycyclopentyl)-2-(1-methyl-1H-imidazol-2-yl)-5-phenylpyrrolo[2,1-f][1,2,4]triazin-4-amine] | 26 to 49
2 | COc1cccc(-c2cn3nc(-c4nccn4C)nc(N[C@@H]4CC[C@@H](OC)C4)c3c2-c2ccccn2)c1F (racemic) [Compound 46, rac 6-(2-Fluoro-3-methoxyphenyl)-N-((1R,3R)-3-methoxycyclopentyl)-2-(1-methyl-1H-imidazol-2-yl)-5-(pyridin-2-yl)pyrrolo[2,1-f][1,2,4]triazin-4-amine] | 50 to 75
3 | COc1cccc(-c2cn3nc(-c4nccn4C)nc(N[C@H]4C[C@H](OC)C4)c3c2-c2ccccc2)c1Cl [Compound 32, 6-(2-Chloro-3-methoxyphenyl)-N-((1r,3r)-3-methoxycyclobutyl)-2-(1-methyl-1H-imidazol-2-yl)-5-phenylpyrrolo[2,1-f][1,2,4]triazin-4-amine] | 26 to 49
4 | COc1cccc(-c2cn3nc(-c4nccn4C)nc(N[C@H]4C[C@H](OC)C4)c3c2-c2ccccc2)c1F [Compound 42, 6-(2-Fluoro-3-methoxyphenyl)-N-((1r,3r)-3-methoxycyclobutyl)-2-(1-methyl-1H-imidazol-2-yl)-5-phenylpyrrolo[2,1-f][1,2,4]triazin-4-amine] | 1 to 25
5 | COCCO[C@H]1C[C@H](Nc2nc(-c3nccn3C)nn3cc(-c4cccc(OC)c4F)c(-c4ccccc4)c23)C1 [Compound 44, 6-(2-Fluoro-3-methoxyphenyl)-N-((1r,3r)-3-(2-methoxyethoxy)cyclobutyl)-2-(1-methyl-1H-imidazol-2-yl)-5-phenylpyrrolo[2,1-f][1,2,4]triazin-4-amine] | 26 to 49
6 | COc1cccc(-c2cn3nc(-c4nccn4C)nc(N[C@H]4C[C@H](OC)C4)c3c2-c2ccn(C)n2)c1F [Compound 47, 6-(2-Fluoro-3-methoxyphenyl)-N-((1r,3r)-3-methoxycyclobutyl)-2-(1-methyl-1H-imidazol-2-yl)-5-(1-methyl-1H-pyrazol-3-yl)pyrrolo[2,1-f][1,2,4]triazin-4-amine] | 1 to 25
7 | Cc1c(-c2ccn(C(C)C)n2)cn2nc(-c3nccn3C)nc(Nc3nnc(C4CC4)o3)c12 [Compound 67, 5-Cyclopropyl-N-(6-(1-isopropyl-1H-pyrazol-3-yl)-5-methyl-2-(1-methyl-1H-imidazol-2-yl)pyrrolo[2,1-f][1,2,4]triazin-4-yl)-1,3,4-oxadiazol-2-amine] | 50 to 75
8 | Cc1c(-c2ccn(C(C)C)n2)cn2nc(-c3nccn3C)nc(Nc3cc(C4CC4)n[nH]3)c12 [Compound 68, N-(3-Cyclopropyl-1H-pyrazol-5-yl)-6-(1-isopropyl-1H-pyrazol-3-yl)-5-methyl-2-(1-methyl-1H-imidazol-2-yl)pyrrolo[2,1-f][1,2,4]triazin-4-amine] | 76 to 100
9 | Cc1c(-c2ccn(C(C)C)n2)cn2nc(-c3nccn3C)nc(Nc3cc(C4CC4)no3)c12 [Compound 69, 3-Cyclopropyl-N-(6-(1-isopropyl-1H-pyrazol-3-yl)-5-methyl-2-(1-methyl-1H-imidazol-2-yl)pyrrolo[2,1-f][1,2,4]triazin-4-yl)isoxazol-5-amine] | 1 to 25
10 | Cc1c(-c2ccn(C(C)C)n2)cn2nc(-c3nccn3C)nc(Nc3nc(C4CC4)no3)c12 [Compound 70, 3-Cyclopropyl-N-(6-(1-isopropyl-1H-pyrazol-3-yl)-5-methyl-2-(1-methyl-1H-imidazol-2-yl)pyrrolo[2,1-f][1,2,4]triazin-4-yl)-1,2,4-oxadiazol-5-amine] | 1 to 25

Other lines, results leading:

Row | inhibition at 20 µM [%] | Compound
11 | 50 to 75 | COc1cccc(-c2cn3nc(-c4nccn4C)nc(N[C@H]4C[C@H](OC)C4)c3c2-c2ccccn2)c1F [Compound 45, 6-(2-Fluoro-3-methoxyphenyl)-N-((1r,3r)-3-methoxycyclobutyl)-2-(1-methyl-1H-imidazol-2-yl)-5-(pyridin-2-yl)pyrrolo[2,1-f][1,2,4]triazin-4-amine]
12 | 50 to 75 | COc1cc(Nc2nc(-c3nccn3C)nn3cc(-c4cccnc4)c(C)c23)ncn1 [Compound 48, N-(6-Methoxypyrimidin-4-yl)-5-methyl-2-(1-methyl-1H-imidazol-2-yl)-6-(pyridin-3-yl)pyrrolo[2,1-f][1,2,4]triazin-4-amine]
13 | 26 to 49 | COc1cc(Nc2nc(-c3nccn3C)nn3cc(-c4ccncc4)c(C)c23)ncn1 [Compound 49, N-(6-Methoxypyrimidin-4-yl)-5-methyl-2-(1-methyl-1H-imidazol-2-yl)-6-(pyridin-4-yl)pyrrolo[2,1-f][1,2,4]triazin-4-amine]
14 | 50 to 75 | COc1cc(Nc2nc(-c3nccn3C)nn3cc(-c4ccn(C(C)C)n4)c(C)c23)n[nH]1 [Compound 51, 6-(1-Isopropyl-1H-pyrazol-3-yl)-N-(5-methoxy-1H-pyrazol-3-yl)-5-methyl-2-(1-methyl-1H-imidazol-2-yl)pyrrolo[2,1-f][1,2,4]triazin-4-amine]
15 | 0 | Cc1c(-c2ccn(C(C)C)n2)cn2nc(-c3nccn3C)nc(Nc3ccncc3)c12 [Compound 52, 6-(1-Isopropyl-1H-pyrazol-3-yl)-5-methyl-2-(1-methyl-1H-imidazol-2-yl)-N-(pyridin-4-yl)pyrrolo[2,1-f][1,2,4]triazin-4-amine]
16 | 50 to 75 | COc1cnc(Nc2nc(-c3nccn3C)nn3cc(-c4ccn(C(C)C)n4)c(C)c23)nc1 [Compound 56, 6-(1-Isopropyl-1H-pyrazol-3-yl)-N-(5-methoxypyrimidin-2-yl)-5-methyl-2-(1-methyl-1H-imidazol-2-yl)pyrrolo[2,1-f][1,2,4]triazin-4-amine]
17 | 26 to 49 | Cc1c(-c2ccn(C(C)C)n2)cn2nc(-c3nccn3C)nc(Nc3ncco3)c12 [Compound 60, N-(6-(1-Isopropyl-1H-pyrazol-3-yl)-5-methyl-2-(1-methyl-1H-imidazol-2-yl)pyrrolo[2,1-f][1,2,4]triazin-4-yl)oxazol-2-amine]
18 | 76 to 100 | Cc1c(-c2ccn(C(C)C)n2)cn2nc(-c3nccn3C)nc(Nc3ccn(C)n3)c12 [Compound 61, 6-(1-Isopropyl-1H-pyrazol-3-yl)-5-methyl-2-(1-methyl-1H-imidazol-2-yl)-N-(1-methyl-1H-pyrazol-3-yl)pyrrolo[2,1-f][1,2,4]triazin-4-amine]
19 | 50 to 75 | CCn1ccc(-c2cn3nc(-c4nccn4C)nc(Nc4cc(OC)ncn4)c3c2C)n1 [Compound 64, 6-(1-Ethyl-1H-pyrazol-3-yl)-N-(6-methoxypyrimidin-4-yl)-5-methyl-2-(1-methyl-1H-imidazol-2-yl)pyrrolo[2,1-f][1,2,4]triazin-4-amine]
20 | 0 | COc1cc(Nc2nc(-c3nccn3C)nn3cc(-c4cccc(OC)n4)c(C)c23)ncn1 [Compound 65, 6-(6-Methoxypyridin-2-yl)-N-(6-methoxypyrimidin-4-yl)-5-methyl-2-(1-methyl-1H-imidazol-2-yl)pyrrolo[2,1-f][1,2,4]triazin-4-amine]
21 | 50 to 75 | COc1ccc(-c2cn3nc(-c4nccn4C)nc(Nc4cc(OC)ncn4)c3c2C)cn1 [Compound 66, 6-(6-Methoxypyridin-3-yl)-N-(6-methoxypyrimidin-4-yl)-5-methyl-2-(1-methyl-1H-imidazol-2-yl)pyrrolo[2,1-f][1,2,4]triazin-4-amine]
